Assays:
[1] = system: asthmatic mice (ovalbumin-sensitized and ovalbumin-challenged); assay: Airway responsiveness to methacholine (airway resistance Raw, forced oscillation) in murine model of asthma, Example 1; format: in vivo, Balb/cJ mice
Method: The results obtained in drug-treated animals were compared with those obtained in vehicle-treated counterparts (controls) in experiments performed in close temporal relationship. […] Mice were sensitized with subcutaneous injection of 25 μg of ovalbumin adsorbed to aluminum hydroxide on protocol days 2, 9, and 16. Subsequently, mice were given 50 μL of saline solution containing 25 μg of ovalbumin intranasally, on a daily basis, from protocol days 23 through 27. A group of ovalbumin-sensitized saline-challenged mice serves as controls for systemic sensitization and respiratory challenges with ovalbumin. Prior to intranasal administrations, mice were sedated with halothane vapor. For the study of Example 1, ovalbumin-sensitized and ovalbumin-challenged mice, and ovalbumin-sensitized and saline-challenged mice will be referred to as asthmatic mice and control mice, respectively. […] To examine the effects of duration of β-adrenergic ligand therapy on the phenotype of the murine model of asthma, the experimental drugs were administered either acutely or chronically to different groups of asthmatic mice. […] These concentrations were chosen based on those producing therapeutic effects in mice in previously published studies. The non-asthmatic mice were fed normal chow. Salbutamol was delivered for 28 days at a dose of 0.5 mg/kg/day using an osmotic minipump (Alzet®, #2004, Durect Corporation, Cupertino, CA). […] Airway resistance (Raw) was measured using the forced oscillation technique. The cellular composition of bronchoalveolar lavage fluid (BALF) was also determined. […] However, it was observed that the degree of airway responsiveness and the number of eosinophils recovered in BALF were lower in non-treated asthmatic mice studied in close temporal relationship with mice receiving acute β-adrenergic antagonist treatments that in those obtained in non-treated asthmatic mice studied concomitantly with mice on chronic β-adrenergic antagonist therapy. […] The complex input impedance of the respiratory system was computed and the value of the real part of respiratory system impedance at 19.75 Hz was taken to reflect the magnitude of airway resistance (Raw). To examine the degree of airway responsiveness of each animal, the values for Raw as a function of methacholine doses were plotted. The largest value for Raw achieved in response to methacholine stimulation was referred to as […]. For mice that achieved a plateau in the methacholine dose-Raw response curve, the ED50 was calculated by linear interpolation using the GraphPad Prism4 (GraphPad Software, Inc.). Results obtained for β-adrenergic drug-treated and non-treated mice were performed using the analysis of variance for multiple groups of a Student's t-test for comparing two groups. The Bonferroni test was used to examine the statistical differences between experimental groups. The effects of acute drug treatments on baseline respiratory system mechanics were assessed using a two-tailed paired t-test. A value of P<0.05 was considered significant.

[2] = system: ovalbumin-sensitized, allergen-challenged mice; assay: Aminophylline on acute airway effects of nadolol (methacholine-induced bronchoconstriction), Example 5; format: in vivo; details: nadolol 0.72 mg/kg i.p. 15 minutes prior to methacholine challenge
Method: At time point 1 (time=−10 min) baseline airway resistance of the mice was determined. At time point 2 (time=−5 min) methacholine was infused into mice to reach their EC70.

asthmatic mice [3] = assay: Decrease in airway resistance (Raw) by period of administration, Example 8 / Table 2; format: in vivo
Method: (§1) The periods of administration of the agents are 15 minutes, 2 days, and 28 days. […] This strongly supports the concept of combination therapy, such as with an inverse agonist and an agonist.

cAMP accumulation = assay: cAMP accumulation, Example 16 / FIG. 16; format: cell-based
β-arrestin pathway = assay: Blockade of the β-arrestin pathway, Example 16 / FIG. 16; format: cell-based
β2-adrenergic receptor [4] = molecular target: T1, β2-adrenergic receptor (Mus musculus, UniProt P18762); assay: Upregulation of β2-adrenergic receptor density by period of administration, Example 8 / Table 2; format: in vivo, mice; design: from tissue
Method: as §1

[5] = cited from earlier work
asthmatic mice [6] = assay: β-adrenergic receptor drugs at low and high doses on airway resistance, Example 7; format: in vivo
Method: For these experiments, salbutamol was used for chronic administration at 0.5 mg/kg/day with a minipump and for acute administration at 0.15 mg/kg by i.v. bolus 15 minutes prior to challenge. […] Carvedilol was used at a high dose of 2400 ppm in chow or at a low dose of 720 ppm in chow. […] In these diagrams, Ctrl=control mice, non-asthmatic, non-drug treated; NTX=asthmatic mice, non-drug treated; AC=acute administration; 2d=chronic administration for 2 days; 28d=chronic administration for 28 days. The airway resistance (Raw) is plotted as cm H2O ml^−1 s.

[7] = system: asthmatic mice (ovalbumin-sensitized and ovalbumin-challenged); details: same mouse asthma model; Callaerts-Vegh et al. 2004; cited from earlier work
β2-adrenergic receptor [8] = assay: Determination of β-adrenergic receptor density by radioligand (ICYP) binding in lung membranes of treated asthmatic mice, Example 2; format: in vivo; details: for Apparent KD (of radioligand ICYP): KD of ICYP binding, not of the drug
Method: β2-adrenergic receptor numbers were measured in asthmatic mice as follows. […] Mice were sacrificed and lung membranes were isolated as follows. Frozen lung tissue was homogenized in an ice-cold buffer containing 0.32 M sucrose and 25 mM Tris (pH 7.4) using a polytron (Pro 200, Pro Scientific, Inc.). The homogenate was centrifuged at 1000×g for 10 min at 4° C. The resulting supernatant was centrifuged at 40,000×g for 20 min at 4° C. The pellet was suspended in an ice-cold 25 mM Tris-HCl buffer (pH 7.4) and centrifuged at 40,000×g for 20 min at 4° C. The final pellet was suspended in 200 μL of 25 mM Tris-HCl (pH 7.4); membrane protein concentration was determined by BCA protein assay kit. […] The incubation was done at 37° C. for 2 h and terminated by rapid vacuum filtration through glass fiber filters. The filters were washed three times with 250 μL of cold wash buffer (25 mM Tris-HCl, pH 7.4) and the radioactivity determined in a counter. […] Receptor densities are expressed as femtomoles of sites per milligram of protein. Bmax is determined by nonlinear regression of the saturation binding curves. […] Please note that the 15-minute and 28-day time points refer to duration of drug treatment.

[9] = system: mucous metaplasia in sensitized/challenged mice; assay: Mucous metaplasia in sensitized/challenged mice (photomicrographs), Example 10; format: in vivo; details: sensitized/challenged mice after treatment
β2-adrenergic receptor [10] = molecular target: T1, β2-adrenergic receptor; assay: Immunohistochemistry of β2-adrenergic receptor levels in lung sections, Example 3; format: in vivo, mice; design: from tissue; host or cells: mouse lung sections; details: chronic nadolol versus untreated animals; epifluorescent microscopy
Method: The mice were sacrificed and the lungs excised. Then the lungs were fixed in 4% paraformaldehyde (45 min, 0° C.). After fixation, lungs were washed in PBS (60 min) and placed in increasing concentrations of sucrose (10% sucrose/5% glycine in PBS for 30 min; 20% sucrose/10% glycine in PBS for 30 min; 30% sucrose/15% glycine in PBS for 12 h at 4° C.). Lungs were embedded in OCT and 12-μm sections cut with a Tissue-Tek II cryostat. The sections were air-dried and fixed with 4% paraformaldehyde for 15 minutes. After 3 washes in PBS, the slides were blocked with 5% milk in PBS for 1 hour, and then incubated overnight with anti-β2-adrenergic receptor antibody (1:200, Santa Cruz Biotechnology) in blocking solution. Slides were washed in PBS and incubated with secondary antibody (1:200, Cy3 goat anti-rabbit antibody, 16 h at 4° C.). […] After washing with PBS, coverslips were mounted and viewed by epifluorescent microscopy.

[11] = system: subjects with mild asthma; assay: Salbutamol effectiveness after methacholine challenge in subjects with mild asthma on nadolol, Example 15; format: in vivo, human; details: salbutamol 2.5 mg by nebulization
From the text: Salbutamol is a short-acting β2-adrenergic receptor agonist.

[12] = system: patients who had a history of failing to quit smoking programs; assay: Success of smoking cessation versus placebo, Example 14; format: in vivo, human; details: patients who had failed quit smoking programs at least 5 times

T1 sequence (P18762 whole entry): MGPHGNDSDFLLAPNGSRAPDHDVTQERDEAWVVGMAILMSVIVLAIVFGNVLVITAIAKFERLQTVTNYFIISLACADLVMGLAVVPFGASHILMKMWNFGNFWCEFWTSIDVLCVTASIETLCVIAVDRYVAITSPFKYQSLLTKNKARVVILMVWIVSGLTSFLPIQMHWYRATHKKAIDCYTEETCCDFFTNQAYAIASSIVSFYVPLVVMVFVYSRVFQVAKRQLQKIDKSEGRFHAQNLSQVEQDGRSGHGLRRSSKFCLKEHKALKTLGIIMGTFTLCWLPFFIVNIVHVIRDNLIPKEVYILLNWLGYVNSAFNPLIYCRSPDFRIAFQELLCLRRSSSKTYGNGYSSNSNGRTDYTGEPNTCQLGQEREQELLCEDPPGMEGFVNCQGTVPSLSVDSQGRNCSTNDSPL

For `CC(C)(C)NCC(O)COc1cccc2c1CC(O)C(O)C2` (stereo not shown) [Nadolol, nadolol], the “airway responsiveness to methacholine provocation (Raw), chronic treatment” value ([1]; drug delivered for 28 days (chow or osmotic minipump)) was “produced a decrease in airway responsiveness, which was more pronounced than that caused by carvedilol treatment”, the “airway responsiveness to methacholine provocation (Raw), acute treatment” value ([1]; single intravenous bolus 15 minutes before methacholine) was “enhanced the airway responsiveness of asthmatic mice” and the baseline airway resistance [2] was “the same baseline airway resistance as non-drug treated sensitized and allergen-challenged mice”. For the same compound, the “Decreased Raw” value (asthmatic mice [3]; 15 minutes administration) was “no”, the “Decreased Raw” value (asthmatic mice [3]; 2 days administration) was “yes” and the “Decreased Raw” value (asthmatic mice [3]; 28 days administration) was “yes”. The cAMP accumulation (cAMP accumulation) was “not associated with cAMP accumulation”, the “block of the β-arrestin pathway” value (β-arrestin pathway) was “acts to block the β-arrestin pathway” and the “Increased β2AR density” value (β2-adrenergic receptor [4]; 15 minutes administration) was “no”. The “Increased β2AR density” value (β2-adrenergic receptor [4]; 2 days administration) was “yes”, the “Increased β2AR density” value (β2-adrenergic receptor [4]; 28 days administration) was “yes” and the lipid solubility [5] was “low lipid solubility”. For the same compound, the “protection from airway hyperresponsiveness” value (asthmatic mice [6]; chronic administration in chow, high and low dose) was “providing protection from airway hyperresponsiveness with chronic administration”, the “airway resistance (Raw) at 1 ppm in chow” value (asthmatic mice [6]; nadolol 1 ppm in chow) was “identical to the untreated mice” and the “airway hyperresponsiveness, administered acutely” value [7] was “worsens airway hyperresponsiveness”. For the same compound, the “airway hyperresponsiveness, administered chronically” value [7] was “prevents airway hyperresponsiveness”, the “increase of the level of β2-adrenergic receptors over the non-treated mice” value (β2-adrenergic receptor [8]; chronic administration, versus untreated methacholine-challenged asthmatic mice) was “nearly eightfold increase” and the “Apparent KD (of radioligand ICYP)” value (β2-adrenergic receptor [8]; lung membranes, drug treatment 15 Minutes) was “(695.1 ± 286.3) pM”. The “Bmax (β-adrenergic receptor density)” value (β2-adrenergic receptor [8]; lung membranes, drug treatment 15 Minutes, mean ± SEM, n=3-5) was 181.9 ± 48.28 femtomoles of sites per milligram of protein, the “Apparent KD (of radioligand ICYP)” value (β2-adrenergic receptor [8]; lung membranes, drug treatment 28 Days) was “(1591.6 ± 335.0) pM” and the “βmax (β-adrenergic receptor density)” value (β2-adrenergic receptor [8]; lung membranes, drug treatment 28 Days, mean ± SEM, n=3-5) was 785.5 ± 154.8 femtomoles of sites per milligram of protein. The mucous metaplasia [9] was “nearly complete elimination of mucous metaplasia”, the “labeling with anti-β2-adrenergic receptor antibodies in lungs” value (β2-adrenergic receptor [10]) was “considerably more intense” and the “effect on effectiveness of salbutamol after methacholine challenge” value [11] was “does not block the effectiveness of the administration of salbutamol”. The reduction in smoking [12] was 70%.
